Substitutions are numbered along the chain they refer to. “Also recorded” adds a separate entry of the source. Where two headings read alike, the source gives them in different places.
Columns and labels:
[1] = target: T1, AR LBP (AR-LBD and Fluormone complex) (Rattus norvegicus, UniProt P15207); assay: Fluorescence polarization (PolarScreen) AR competitor assay; type: binding; details: for displacement of bound fluorescently-labelled ligand from the LBP: FP assay
T1 construct: purchased Invitrogen P3018
T1 sequence (P15207 651-882 limits assumed): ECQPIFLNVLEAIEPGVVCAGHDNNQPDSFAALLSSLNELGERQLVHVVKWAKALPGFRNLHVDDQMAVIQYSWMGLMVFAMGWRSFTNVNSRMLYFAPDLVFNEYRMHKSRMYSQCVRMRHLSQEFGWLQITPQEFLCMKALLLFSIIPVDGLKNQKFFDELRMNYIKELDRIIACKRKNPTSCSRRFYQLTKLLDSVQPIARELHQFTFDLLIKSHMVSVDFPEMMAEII
Source text: The TR-FRET assay cannot differentiate between direct coactivator antagonists acting on the LBD surface and ‘classical’ AR antagonists which also functionally disrupt coactivator recruitment by displacing DHT from the ligand binding pocket.
(§1) Fluorescence polarization assays are susceptible by fluorescence interference/aggregation and light scattering issues by compounds present in the wells. This could lead to false positive or false negative hits. This problem is addressed in and the presence of false ‘hits’ can be determined by plotting the total fluorescence intensity of the assay versus the anisotropy for each compound.
(§2) To minimize the possibility of such false negative or positive reporting, the FP data was rigorously interrogated through examination of both auto-fluorescence and aggregation (FIG. 3). […] Diarylhydrazides are AR Potential Selective Coactivator Interaction Disruptors
PolarScreen Androgen Receptor Competitor Assay Kit Green (Invitrogen, cat no. P3018) was used to investigate the binding of the test compound to the LBP site, occupied by a high affinity ligand (Fluormone).
100× test compound solutions in DMSO were diluted in AR green buffer (Invitrogen) to achieve 2× concentrations and placed in a 384 well plate (Corning, cat no. 3576) with 40 μl volume capacity. AR-LBD was supplemented with 5 mM DTT to prevent protein degradation. AR-LBD and Fluormone (2×) mix are prepared separately and then added to each compound dilution to achieve a final concentration LBD-fluormone of 50 nM and 2 nM respectively. Plates were incubated protected from light for at least 4 hours. Controls included a maximum mP positive control, which consists of the AR-LBD and fluormone mix (2×), and a minimum mP control, containing only Fluormone (2×). A vehicle control was added to account for DMSO effect, and a blank control containing buffer only. Fluorescence polarization was measured with PHERAstar equipment (BMG LabTech) using an optic module with excitation at 485 nm and emission at 530 nm.

AR-LBD wt = target: T2, AR-LBD wt (Homo sapiens, UniProt P10275); assay: Lanthascreen TR-FRET AR coactivator (D11-FxxLF) assay, AR-LBD wt; type: biochemical; details: for type of AR antagonism (full / partial): TR-FRET in agonist and antagonist mode; for IC50: TR-FRET, D11-FxxLF peptide, DHT = EC80
T2 sequence (P10275 669-900 limits assumed): T1 sequence (P15207 651-882 limits assumed)

[2] = target: T3, Estrogen Receptor alpha (ER-α) LBD (Homo sapiens, UniProt P03372); assay: TR-FRET PGC1-α coactivator recruitment assay, ERα LBD; type: biochemical; details: Estradiol = EC80; for effect on ERα recruitment of fluorescent labelled PGC1-α: 100 μM to 45 nM; for IC50: TR-FRET, ± SEM (n = 6), read-out: NR LBDs IC50 (μM) ER-α
T3 sequence (P03372 311-547 limits assumed): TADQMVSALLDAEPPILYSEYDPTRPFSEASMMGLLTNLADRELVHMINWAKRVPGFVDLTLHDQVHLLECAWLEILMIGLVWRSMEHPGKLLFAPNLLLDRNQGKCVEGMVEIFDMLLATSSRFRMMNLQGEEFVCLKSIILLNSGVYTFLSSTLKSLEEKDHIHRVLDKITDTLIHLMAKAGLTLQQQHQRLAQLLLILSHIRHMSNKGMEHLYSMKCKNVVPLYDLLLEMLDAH
Description: (§3) Compound binding affinities for Progesterone Receptor (PR), Glucocorticoid Receptor (GR), Estrogen Receptor alpha and Estrogen Receptor beta were determined using TR-FRET (Table 2).
(§4) Selectivity of the diarylhydrazide scaffold for the AR was determined through a TR-FRET assay in ERα (FIGS. 8A & 9A1) and ERR (FIGS. 8B & 9A2). […] The non-LBP nature of this inhibition was confirmed by a FP assay (FIGS. 9C, 9B1 & 9B2).
(§5) Lanthascreen TR-FRET AR Coactivator Assay kit (Invitrogen, cat no. PV4381) was used to screen for potential coactivator disruptors.
(§6) TR FRET values were calculated at 10 flashes per well, using a delay time of 100 μs and integration time 200 μs as recommended by the Invitrogen assay guidelines. […] A serial dilution of compounds was firstly prepared in 100×DMSO (Sigma-Aldrich) starting from the maximum desired concentration to achieve a 12 point range concentration using 96-well polypropylene plates (Nalgene Nunc, Rochester, N.Y.). Each 100× solution was diluted to 2× concentration with TR-FRET co-regulator buffer A (Invitrogen proprietary buffer), yielding a final concentration of 1% DMSO in each well.
(§7) D11-FxxLF and Tb antibody were premixed in light protecting vials prior to use. A final concentration of DTT 5 mM was used in the assay buffer in order to prevent protein degradation. All plates (agonist and antagonist mode) were incubated between 2 and 4 hours at room temperature protected from light prior to TR-FRET measurement. […] Data was fitted using the sigmoidal dose response (variable slope) available from Graphpad Prism 5. Y=Bottom+(Top-Bottom)/(1+10^((Log IC50−X)*HillSlope))
(§8) The same procedure was used for AR T877A (Invitrogen cat no. PV4667), PR (Invitrogen cat no. PV4666), ER-α (Invitrogen cat no. PV4544), ER-β (Invitrogen cat no. PV4541) and GR (Invitrogen cat no. PV4683). The assay was adapted to exclude possible non-specific aggregation mechanism of inhibition by adding very low concentration of detergent Triton X-100 (0.001%) to the assay buffer following the Shoichet review guidelines [Shoichet BK (2006) Screening in a spirit haunted world. Drug Discov Today 11:607-615].

[3] = Solubility in FP assay buffer (fluorescence interference/aggregation check); type: physicochemical; details: high concentration (50 μM)
Source text: as §1, §2

[4] = target: T4, Progesterone Receptor (PR) LBD (Homo sapiens, UniProt P06401); assay: TR-FRET SRC1-4 coactivator recruitment assay, PR LBD; type: biochemical; details: Progesterone = EC80; for effect on PR recruitment of fluorescent labelled SRC1-4: 100 μM to 45 nM; for IC50: TR-FRET, ± SEM (n = 6), read-out: NR LBDs IC50 (μM) PR
T4 construct: purchased Invitrogen PV4666
T4 sequence (P06401 679-913 limits assumed): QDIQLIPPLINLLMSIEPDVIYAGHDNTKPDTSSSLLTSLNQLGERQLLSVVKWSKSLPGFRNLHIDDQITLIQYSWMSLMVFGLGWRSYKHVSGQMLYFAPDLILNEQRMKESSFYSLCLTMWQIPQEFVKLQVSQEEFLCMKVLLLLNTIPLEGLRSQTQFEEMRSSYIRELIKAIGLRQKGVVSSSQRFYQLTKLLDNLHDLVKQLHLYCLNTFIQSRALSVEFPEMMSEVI
Description: as §3, §5, §6, §7, §8

[5] = target: T5, Glucocorticoid Receptor (GR) LBD (Homo sapiens, UniProt P04150); assay: TR-FRET SRC1-4 coactivator recruitment assay, GR LBD; type: biochemical; details: Dexamethasone = EC80; for effect on SRC1-4 recruitment by GR LBD: 100 μM to 12.5 μM or single point 100 μM; for IC50: TR-FRET, ± SEM (n = 6), read-out: NR LBDs IC50 (μM) GR
T5 construct: purchased Invitrogen PV4683
T5 sequence (P04150 524-758 limits assumed): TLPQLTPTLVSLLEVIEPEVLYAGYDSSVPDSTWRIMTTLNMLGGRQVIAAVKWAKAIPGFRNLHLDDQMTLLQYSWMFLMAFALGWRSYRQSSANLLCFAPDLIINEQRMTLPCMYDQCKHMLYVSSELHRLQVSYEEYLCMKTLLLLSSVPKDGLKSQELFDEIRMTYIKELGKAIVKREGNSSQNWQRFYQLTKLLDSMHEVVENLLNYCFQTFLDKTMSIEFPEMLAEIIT
Description: as §3
Dexamethasone bound receptor recruitment of the fluorescently labelled SCR1-4 coactivator was unimpaired at screening concentrations up to 100 μM for all the diarylhydrazides evaluated (FIG. 5).
as §5, §6, §7, §8

[6] = target: Estrogen Receptor beta (ER-β) LBD (Homo sapiens, UniProt Q92731); assay: TR-FRET PGC1-α coactivator recruitment assay, ERβ LBD; type: biochemical; details: Estradiol = EC80; for effect on ERβ recruitment of fluorescent labelled PGC1-α: 100 μM to 45 nM; for IC50: TR-FRET, ± SEM (n = 6), read-out: NR LBDs IC50 (μM) ER-β
Description: as §3, §4, §5, §6, §7, §8

AR-LBD T877A mutant = target: T6, AR-LBD T877A mutant (Homo sapiens, UniProt P10275, T878A); assay: TR-FRET coactivator assay, AR T877A mutant; type: biochemical; details: D11-FxxLF peptide, DHT = EC80
T6 construct: purchased Invitrogen PV4667
T6 sequence (P10275 669-900 T878A): T1 sequence (P15207 651-882 limits assumed) with T210A

LNCaP cells = assay: LNCaP cell proliferation assay (androgen deprived, AlamarBlue); type: cell-based; details: 10^−10M, 0.1% DMSO, steroid depleted conditions
Description: To determine the optimal DHT concentration and length of treatment required for cell proliferation assays, we tested a range of DHT concentrations in 0.1% DMSO for 5 or 7 days in LNCaP cells cultured in FBS stripped phenol red free media. […] Media and treatments were replaced every second incubation day (FIGS. 12 A and B)
For cell viability (end point) assays LNCaP, PC-3 and PWR-1E cells were seeded at 2.5*10^4/ml density in 200 μl volume of a 96-well plate in triplicate and incubated for 24 hours prior testing. Test compounds were included at different concentrations to achieve a final concentration of 0.5% DMSO in each well. Effect of 0.5% DMSO on cell-viability was also evaluated. Cell viability was assessed after 24 hours of treatment using 10% Alamar Blue reagent (Invitrogen) for each well. Cell viability was monitored by the reduction of resazurin, a blue, cell-permeable and non-toxic compound, to resorufin, a red and highly fluorescent product. Viable cells continuously convert resazurin to resorufin, increasing the overall colour and fluorescence of the media surrounding cells. Fluorescence intensity can be quantitatively determined with a fluorescence microplate reader at excitation/emission 544 nm/590 nm (Spectramax Gemini). For hormone dependent cell proliferation assays in androgen deprived LNCaP cells, cells were seeded at 2*10^4 cells/ml in a 24-well plate in triplicate. Cells were plated in phenol red free RPMI Glutamax (Invitrogen) supplemented with 10% charcoal-stripped FBS to deplete endogenous steroids 48 hours prior the assay as described in previous reports. […] Cells were treated with different concentrations of test compounds with or without 0.1 nM DHT to achieve a final concentration of 0.1% DMSO in each well. A control for the vehicle was included to ensure no effect on viability could be detected. Media and treatments were replaced every second day, after washing the cells twice with 1×PBS. Supernatants were collected after five days for secreted PSA levels evaluation and cell proliferation was assessed for the same plate using Alamar Blue in order to exclude non-specific effects due to toxicity issues.

Estrogen Receptor beta (ER-β) LBD, sequence (Q92731 264-498 limits assumed): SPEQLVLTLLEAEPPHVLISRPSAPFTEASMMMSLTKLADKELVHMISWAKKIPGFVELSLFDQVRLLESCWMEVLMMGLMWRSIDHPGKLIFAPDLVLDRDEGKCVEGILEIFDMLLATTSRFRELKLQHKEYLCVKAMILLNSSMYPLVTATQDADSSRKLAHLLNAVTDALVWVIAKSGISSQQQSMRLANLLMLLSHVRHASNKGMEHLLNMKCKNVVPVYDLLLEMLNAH

SMILES	displacement of bound fluorescently-labelled ligand from the LBP [1]	type of AR antagonism (full / partial) (AR-LBD wt)	inhibition at 1 µM ([1]; FP, 1 μM, read-out: inhibition of the LBD-F complex)	effect on ERα recruitment of fluorescent labelled PGC1-α [2]	IC50 [2]	solubility in the chosen assay buffer [3]	effect on PR recruitment of fluorescent labelled SRC1-4 [4]	IC50 [4]	effect on SRC1-4 recruitment by GR LBD [5]	IC50 [5]	effect on ERβ recruitment of fluorescent labelled PGC1-α [6]	IC50 [6]	IC50 (AR-LBD wt; read-out: AR (wt))	IC50 (AR-LBD wt; read-out: Activity (AR wt TR-FRET))	IC50 (AR-LBD T877A mutant)	increase of LNCaP cell proliferation (LNCaP cells)
COc1cc(/C=N/NC(=O)c2cc3c(ccc4ccccc43)o2)cc(I)c1O [MDG15]	inability to displace	full AR antagonists	–	–	–	–	–	–	–	–	–	–	–	–	–	–
O=C(N/N=C/c1cc2ccccc2cc1O)c1cc2ccccc2cc1O [MDG483]	–	full AR antagonists	~0%	partially inhibit	10.2 ± 3 µM	solubility issues	partially inhibit	8.4 ± 1.4 µM	do not affect	> 100 µM	partially inhibit	12 ± 0.4 µM	–	–	–	–
O=C(N/N=C/c1cc(Br)ccc1O)c1cc2ccccc2cc1O [MDG292]	–	full AR antagonism; also recorded: full AR antagonists	–	partially inhibit	> 100 µM	–	partially inhibit	22.5 ± 5.4 µM	do not affect	> 100 µM	partially inhibit	> 100 µM	13.3 ± 3.1 µM	13.3 ± 3.1 µM	12.4 ± 2.2 µM	–
O=C(N/N=C/c1cccc(O)c1O)c1cc2ccccc2cc1O [MDG173]	inability to displace	full AR antagonists	–	–	–	–	–	–	–	–	–	–	–	–	–	–
C[C@]12CCC(=O)C[C@@H]1CC[C@@H]1[C@@H]2CC[C@]2(C)[C@@H](O)CC[C@@H]12 [DHT, dihydrotestosterone, reference compound]	–	–	–	–	–	–	–	–	–	–	–	–	–	–	–	2 fold

Source: patent publication US9296716B2, “Androgen receptor ligands” (THE PROVOST, FELLOWS, FOUNDATION SCHOLARS, & THE OTHER …, priority 2011, dated 2016)
